In patent publication US5889028A, “Colonic delivery of nicotine to treat inflammatory bowel disease” (priority 1997, dated 1999):
Entries after “also recorded” stand apart in the source; their conditions may differ.

Legend:
[1] = systemic cotinine; cited from earlier work
[2] = gum and patch papers; cited from earlier work
[3] = cited from earlier work
[4] = in vivo
[5] = Example 1: side effects (questionnaire) versus plasma nicotine concentration; format: in vivo, human
Procedure: Intraindividual side effects occurred during each study, as determined by a questionnaire filled out every 30 minutes, closely correlated with plasma nicotine concentrations. However, the threshold above which symptoms appeared varied from individual to individual with the nicotine concentration at which side effects first appeared ranging from 2.4 ng/mL to 9.9 ng/mL (although some subjects had nicotine concentrations of >11 ng/mL without symptoms).

[6] = Example 1: nicotine pharmacokinetics after IV, oral and rectal enema administration in healthy volunteers
Procedure: Intravenous nicotine was prepared using a nicotine base, supplied as the tartrate salt (Fisher Scientific/Eastman Kodak Company, Rochester, N.Y.). Solutions for injection were made up by combining 1.5 mg nicotine base (4.44 mg tartrate salt) in 100 ml of 0.9% sterile normal saline to form a 15 mcg/mL solution. The intravenous solution was filtered through a 0.22 micron filter into a sterile container and under sterile conditions. The solution was then cultured for organisms, assayed for endotoxin, and chemically analyzed prior to infusion to assure stable nicotine concentration. These samples were then be stored in sealed vials until the time of administration.
Thirty paid human volunteers were admitted to the pharmacokinetic study after giving informed consent to a protocol approved by the institutional review board at the Mayo Clinic, Rochester, Minn. The subjects ranged in age from 21-56 and their body weights ranged from 45 to 153 Kg. […]
Each subject underwent 2 investigations (IV and non-IV) of 8 hours duration at least 1 week apart. […] Plasma concentrations of nicotine were determined by gas chromatography/mass spectrometry as described by Baskin et al. (Clin. Chem., 31:76-80 (1991)).
For this study, the maximum plasma nicotine concentration (Cmax) and the time to reach Cmax (Tmax) were defined as the highest measured plasma concentrations and the time of the sample, respectively.

clinical = details: in vivo
[7] = nicotine base; cited from earlier work
[8] = Benowitz et al., cited from earlier work

| SMILES | activity relative to nicotine [1] | general side effects of nicotine administration [2] | effect on mucus ([3]; colonic mucus synthesis) | effect on rectal blood flow ([3]; patients with ulcerative colitis) | effect on mucosal production of eicosanoids ([3]; prostaglandin E, 6-keto-PGF1a, leukotrienes) | mucus thickness ([3]; rabbits, high doses, versus controls) | combination with 5-ASA, sulphasalazine, corticosteroids or budesonide [4] | efficacy compared with high dosage transdermal patch [4] | remission (clinical response) [4] | nicotine concentration without symptoms ([5]; some subjects) [ng/mL] | side effects observed ([5]; when side effects occurred, variable frequency) | bioavailability / tolerability in words [6] | Fa (clinical) [%] | absorption through mucous membranes and skin [7] | mean bioavailability for the oral dose [8] | CLb ([8]; IV, heavy smokers) | T1/2 ([8]; IV, heavy smokers) | Vdss ([8]; IV, heavy smokers) |
| --- | --- | --- | --- | --- | --- | --- | --- | --- | --- | --- | --- | --- | --- | --- | --- | --- | --- | --- |
| CN1C(=O)CC[C@H]1c1cccnc1 [cotinine] | less active metabolite than nicotine | – | – | – | – | – | – | – | – | – | – | – | – | – | – | – | – | – |
| CN1CCCC1c1cccnc1 (stereo not drawn) [nicotine] | – | nausea, vomiting, headaches, insomnia, somnolence, diaphoresis, pre-syncope and tremor | appears to increase mucus synthesis to levels observed in healthy subjects | can reduce rectal blood flow to the normal range | appears to reduce mucosal production of eicosanoids | greater mucus thickness as compared to controls | appears to show a synergistic effect | at least as efficacious as high dosage transdermal patch | up to 70% | > 11 | nausea, lightheadedness, and diaphoresis | low bioavailability and was well tolerated; also recorded: low or negligible bioavailability and was well tolerated | ~20 | readily absorbed through mucous membranes and intact skin | 44 (9%) | 66 (8 L/hr) | 203 (61 min.) | 3.0 (0.7 L/Kg) |
